Here are results for seven compounds from paper PMC5826802 (Analytical biochemistry, 2017).

The target of assay [1] is T1, PARP15 (Homo sapiens, UniProt Q460N3).
T1 sequence (Q460N3 481-678): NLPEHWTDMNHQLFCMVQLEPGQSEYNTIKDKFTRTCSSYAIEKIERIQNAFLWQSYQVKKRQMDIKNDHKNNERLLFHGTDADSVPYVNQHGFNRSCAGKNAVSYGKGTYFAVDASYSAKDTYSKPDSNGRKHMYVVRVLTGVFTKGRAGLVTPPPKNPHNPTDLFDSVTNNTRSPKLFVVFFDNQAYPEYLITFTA
Description: MLISA inhibition of PARP15-catalyzed automodification. The assay is classed as biochemical. Particulars: for inhibition effects on PARP15 activity: at concentrations up to 100 μM.

Assay [2] relates to PARP15. The settings on record: read-out: Km of PARP15 for automodification; reported previously; cited from earlier work.

With `Oc1cccc2c(O)nccc12` [1,5-Isoquinolinediol, 1,5-isoquinolinediol], inhibition in assay [1] was half-maximal at 8.5 ± 2.7 µM (IC50).

On to `O=c1[nH]c2ccccc2c2ccccc12` [6(5H)-Phenanthridinone, 6(5H)-phenanthridinone], for which it took 1.5 ± 0.5 µM to reach half-maximal inhibition in assay [1] (IC50). In the case of `Nc1ncnc2[nH]cnc12` [Adenine, adenine], the “inhibition effects on PARP15 activity” value in assay [1] is “no significant inhibition effects”. Turning to `Cc1nc2c(c(=O)[nH]1)CSCC2` [DR2313], in assay [1] (PARP15, 500 nM enzyme, 500 μM NAD+), the pIC50 worked out at 5.1. For `CN(C)c1ccc(O)c2c1C[C@H]1C[C@H]3[C@H](N(C)C)C(O)=C(C(N)=O)C(=O)[C@@]3(O)C(O)=C1C2=O` [Minocin], in assay [1], the “inhibition effects on PARP15 activity” value is “no significant inhibition effects”. `NC(=O)c1ccc[n+]([C@@H]2O[C@H](COP(=O)([O-])OP(=O)(O)OC[C@H]3O[C@@H](n4cnc5c(N)ncnc54)[C@H](O)[C@@H]3O)[C@@H](O)[C@H]2O)c1` [NAD^+, nicotinamide adenine dinucleotide]: the Km in assay [2] was 5.8 ± 1.9 µM.

For `Oc1nc(-c2ccc(C(F)(F)F)cc2)nc2c1CSCC2` [XAV939], the “inhibition effects on PARP15 activity” value in assay [1] is “no significant inhibition effects”.

Usually IC50 stands for the point on the concentration scale where inhibition reaches its midpoint. Usually pIC50 stands for the negative decadic logarithm of the IC50, by convention in mol/L. A high value points to a small IC50. The Km is the substrate concentration at which the rate is half of its maximum.
